Like-named read-outs stand apart in the source and are kept apart here.
What was measured:
[1] = target: RET-V804M (Homo sapiens, UniProt P07949, V804M); assay: RET inhibition experiment (HTRF KinEASE-TK kit), mutant RET-V804M; type: biochemical; conditions: for IC50: read-out: The IC50 (nM) for inhibiting V804M
Method: Experimental method: According to the instructions of the HTRF KinEASE-TK kit (Cisbio), the compounds of the present disclosure were tested for their inhibitory effects on the activity of wild-type RET enzyme, mutant RET enzyme (RET-V804M, RET-V804L, and RET-M918T) and fusion-type RET enzyme (RET-CCDCl6). After pre-incubation of different RET enzymes and different concentrations of the test compounds at room temperature for 30 min, a substrate and adenosine triphosphate (ATP) were added to initiate the reaction. After incubation at room temperature for 40 min, TK antibody-cryptate and streptavidin-XL665 were added, and the test was performed after incubation at room temperature for 45 min. With the solvent group (DMSO) as the negative control and the buffer group (without RET enzyme) as the blank control, the relative inhibitory activity percentages (i.e., inhibition rates) of different concentrations of the compounds were computed as per the following formula:
(§1) Relative inhibitory activity percentage=1−(compound group of different concentrations−blank control)/(negative control−blank control)*100%
(§2) The relative inhibitory activity percentages of different concentrations of the compounds were plotted with respect to the compound concentrations, and the curve was fitted according to a four-parameter model to compute the IC50 value as per the following formula:
(§3) y=min+(max−min)/(1+(x/IC50)^(−Hillslope))
(§4) where y is the relative inhibitory activity percentage, max is the maximum value of the fitted curve, min is the minimum value of the fitted curve, x is the logarithmic concentration of the compound, and Hillslope is the slope of the curve.

[2] = target: VEGFR2 (Homo sapiens, UniProt P35968); assay: VEGFR2 inhibition experiment (HTRF KinEASE-TK kit); type: biochemical; conditions: for inhibition at 0.3 µM: 300 nM
Sequence of VEGFR2 (P35968 20-1356, species assumed): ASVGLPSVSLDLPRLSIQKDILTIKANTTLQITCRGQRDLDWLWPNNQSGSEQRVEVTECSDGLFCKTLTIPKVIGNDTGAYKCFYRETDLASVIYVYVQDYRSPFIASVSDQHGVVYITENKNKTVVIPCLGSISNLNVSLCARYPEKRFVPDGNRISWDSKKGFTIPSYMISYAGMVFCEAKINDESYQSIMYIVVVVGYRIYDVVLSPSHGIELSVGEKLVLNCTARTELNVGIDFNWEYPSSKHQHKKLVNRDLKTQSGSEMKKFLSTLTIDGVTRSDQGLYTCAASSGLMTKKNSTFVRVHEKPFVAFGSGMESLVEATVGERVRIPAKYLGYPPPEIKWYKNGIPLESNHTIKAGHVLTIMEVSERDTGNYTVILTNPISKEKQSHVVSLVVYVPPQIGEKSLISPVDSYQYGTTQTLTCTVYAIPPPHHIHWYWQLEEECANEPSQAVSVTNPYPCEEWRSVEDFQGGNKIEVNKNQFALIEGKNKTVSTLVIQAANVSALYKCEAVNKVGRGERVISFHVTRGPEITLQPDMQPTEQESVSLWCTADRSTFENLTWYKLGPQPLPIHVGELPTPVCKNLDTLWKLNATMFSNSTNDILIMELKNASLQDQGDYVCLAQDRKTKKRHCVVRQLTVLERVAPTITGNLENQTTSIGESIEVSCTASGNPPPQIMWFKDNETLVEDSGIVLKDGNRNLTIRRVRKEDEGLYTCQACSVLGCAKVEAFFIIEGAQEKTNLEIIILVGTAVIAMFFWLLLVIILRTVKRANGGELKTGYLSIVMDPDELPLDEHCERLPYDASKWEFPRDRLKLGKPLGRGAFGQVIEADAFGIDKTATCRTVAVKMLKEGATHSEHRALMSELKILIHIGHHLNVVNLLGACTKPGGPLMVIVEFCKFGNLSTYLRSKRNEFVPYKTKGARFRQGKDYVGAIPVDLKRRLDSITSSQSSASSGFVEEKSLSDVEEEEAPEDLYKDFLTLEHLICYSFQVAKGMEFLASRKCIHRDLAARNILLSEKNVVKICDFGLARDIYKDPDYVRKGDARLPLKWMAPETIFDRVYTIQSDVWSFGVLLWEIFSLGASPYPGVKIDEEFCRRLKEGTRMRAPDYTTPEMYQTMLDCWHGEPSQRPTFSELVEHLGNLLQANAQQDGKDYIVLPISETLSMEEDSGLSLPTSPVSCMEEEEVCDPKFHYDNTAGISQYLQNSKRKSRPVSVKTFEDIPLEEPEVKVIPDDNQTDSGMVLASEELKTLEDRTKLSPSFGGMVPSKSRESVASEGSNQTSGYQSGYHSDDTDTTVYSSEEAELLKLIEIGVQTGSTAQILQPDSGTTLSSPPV
Method: Experimental method: According to the instructions of the HTRF KinEASE-TK kit (Cisbio), the compounds of the present disclosure were tested for their inhibitory effects on the VEGFR2 enzyme activity. After pre-incubation of the VEGFR2 enzyme and different concentrations of test compounds at room temperature for 30 min, a substrate and adenosine triphosphate (ATP) were added to initiate the reaction. After incubation at room temperature for 40 min, TK antibody-cryptate and streptavidin-XL665 were added, and the test was performed after incubation at room temperature for 45 min. With the solvent group (DMSO) as the negative control and the buffer group (without VEGFR2 enzyme) as the blank control, the relative inhibitory activity percentages (i.e., inhibition rates) of different concentrations of the compounds were computed as per the following formula:
as §1, §2, §3, §4

[3] = 10 nM (Table 2), read-out: Inhibition rate on RET-V804M
[4] = read-out: Inhibition rate on VEGFR2

Sequence of RET-V804M (P07949 29-1114 V804M): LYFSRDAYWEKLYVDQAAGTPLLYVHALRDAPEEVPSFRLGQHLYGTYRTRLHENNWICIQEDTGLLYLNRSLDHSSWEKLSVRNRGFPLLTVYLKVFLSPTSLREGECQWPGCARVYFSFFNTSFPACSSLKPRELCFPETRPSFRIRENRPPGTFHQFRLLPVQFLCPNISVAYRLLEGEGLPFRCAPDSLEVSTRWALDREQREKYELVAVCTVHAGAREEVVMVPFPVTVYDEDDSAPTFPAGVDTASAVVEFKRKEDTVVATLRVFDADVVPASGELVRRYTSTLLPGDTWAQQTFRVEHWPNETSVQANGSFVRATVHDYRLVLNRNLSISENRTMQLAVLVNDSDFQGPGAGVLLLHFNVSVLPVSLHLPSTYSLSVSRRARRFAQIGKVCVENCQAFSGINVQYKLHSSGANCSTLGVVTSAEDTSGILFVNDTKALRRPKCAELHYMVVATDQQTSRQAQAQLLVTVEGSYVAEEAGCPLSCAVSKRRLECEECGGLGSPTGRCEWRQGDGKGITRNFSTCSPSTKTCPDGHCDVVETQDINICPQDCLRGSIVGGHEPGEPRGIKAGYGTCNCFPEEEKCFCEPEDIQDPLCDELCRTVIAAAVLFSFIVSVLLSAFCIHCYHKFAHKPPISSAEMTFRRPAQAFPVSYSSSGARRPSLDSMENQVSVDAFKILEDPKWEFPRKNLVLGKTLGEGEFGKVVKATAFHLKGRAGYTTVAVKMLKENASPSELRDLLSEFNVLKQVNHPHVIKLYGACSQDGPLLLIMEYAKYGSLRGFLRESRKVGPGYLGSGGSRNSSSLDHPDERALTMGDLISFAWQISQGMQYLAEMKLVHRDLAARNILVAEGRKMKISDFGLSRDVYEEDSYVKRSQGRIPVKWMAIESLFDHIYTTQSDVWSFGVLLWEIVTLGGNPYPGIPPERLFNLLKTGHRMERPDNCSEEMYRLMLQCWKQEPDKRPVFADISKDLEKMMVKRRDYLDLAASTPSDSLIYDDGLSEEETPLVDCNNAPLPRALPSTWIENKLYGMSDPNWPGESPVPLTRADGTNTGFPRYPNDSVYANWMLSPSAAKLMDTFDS

| SMILES | inhibition at 0.01 µM [1, 3] [%] | inhibition at 0.3 µM [2, 4] [%] | IC50 [1] [nM] | other results |
| --- | --- | --- | --- | --- |
| Cc1cc(Nc2cc(C)[nH]n2)nc(-c2ccc(N3CC4CC(C3)N4Cc3ccc(-c4cc(F)cnc4C)nc3)nc2)n1 [Compound 8, 2-(6-(6-((5′-fluoro-2′-methyl-[2,3′-dipyridyl]-5-yl)methyl)-3,6-diazabicyclo[3.1.1]heptan-3-yl)pyridin-3-yl)-6-methyl-N-(5-methyl-1H-pyrazol-3-yl)pyrimidin-4-amine] | 46 | 5 | – | – |
| Cc1cc(Nc2cc(C)[nH]n2)nc(-c2ccc(N3CC4CC(C3)N4Cc3ccc(-n4nccc4C)nc3)nc2)n1 [Compound 9, 6-methyl-2-(6-(6-((6-(5-methyl-1H-pyrazol-1-yl)pyridin-3-yl)methyl)-3,6-diazabicyclo[3.1.1]heptan-3-yl)pyridin-3-yl)-N-(5-methyl-1H-pyrazol-3-yl)pyrimidin-4-amine] | – | 69 | 5.43 ± 0.91 | – |
| Cc1cc(Nc2cc(C3CC3)[nH]n2)nc(-c2ccc(N3CC4CC(C3)N4Cc3ccc(-n4cc(F)cn4)nc3)nc2)n1 [Compound 10, N-(5-cyclopropyl-1H-pyrazol-3-yl)-2-(6-(6-((6-(4-fluoro-1H-pyrazol-1-yl)pyridin-3-yl)methyl)-3,6-diazabicyclo[3.1.1]heptan-3-yl)pyridin-3-yl)-6-methylpyrimidin-4-amine] | – | 69 | 3.97 ± 0.3 | – |
| Cc1cc(Nc2cc(C)[nH]n2)nc(-c2ccc(N3CC4CC(C3)N4Cc3ccc(-n4nc(C)cc4C)nc3)nc2)n1 [Compound 11, 2-(6-(6-((6-(3,5-dimethyl-1H-pyrazol-1-yl)pyridin-3-yl)methyl)-3,6-diazabicyclo[3.1.1]heptan-3-yl)pyridin-3-yl)-6-methyl-N-(5-methyl-1H-pyrazol-3-yl)pyrimidin-4-amine] | – | – | 7.22 ± 0.58 | IC50 ([2]; read-out: IC50 for inhibiting VEGFR2): 158 ± 25.1 nM |
| Cc1cc(Nc2cc(C)[nH]n2)nc(-c2ccc(N3CC4CC(C3)N4Cc3ccc(-n4nccc4C(C)C)nc3)nc2)n1 [Compound 12, 2-(6-(6-((6-(5-isopropyl-1H-pyrazol-1-yl)pyridin-3-yl)methyl)-3,6-diazabicyclo[3.1.1]heptan-3-yl)pyridin-3-yl)-6-methyl-N-(5-methyl-1H-pyrazol-3-yl)pyrimidin-4-amine] | – | 62 | 6.94 ± 0.78 | – |
| Cc1cc(Nc2cc(C)[nH]n2)nc(-c2ccc(N3CC4CC(C3)N4Cc3cnc(C)s3)nc2)n1 [Compound 15, 6-methyl-N-(5-methyl-1H-pyrazol-3-yl)-2-(6-(6-((2-methylthiazol-5-yl)methyl)-3,6-diazabicyclo[3.1.1]heptan-3-yl)pyridin-3-yl)pyrimidin-4-amine] | – | – | – | inhibition at 0.1 µM ([1]; 100 nM (Table 2), read-out: Inhibition rate on RET-V804M): 91%; inhibition at 0.1 µM ([2]; 100 nM, read-out: Inhibition rate on VEGFR2): 29% |
| COc1ccc(CN2CCN(c3ccc(-c4nc(C)cc(Nc5cc(C)[nH]n5)n4)cn3)CC2)cc1 [Compound 23, 2-(6-(4-(4-methoxybenzyl)piperazin-1-yl)pyridin-3-yl)-6-methyl-N-(5-methyl-1H-pyrazol-3-yl)pyrimidin-4-amine] | – | – | – | inhibition at 0.01 µM ([1]; read-out: Inhibition rate on RET-V804M): 47%; inhibition at 0.1 µM [2, 4]: -10% |
| Cc1cc(Nc2cc(C)[nH]n2)nc(-c2ccc(N3CC4CC(C3)N4Cc3ccc(-n4cc5c(n4)CCC5)nc3)nc2)n1 [Compound 25] | – | 53 | 6.29 ± 0.9 | – |
| Cc1cc(Nc2cc(C)[nH]n2)nc(-c2ccc(N3CC4CC(C3)N4C(=O)c3ccc(-n4cc(F)cn4)nc3)nc2)n1 [Compound 26, (6-(4-fluoro-1H-pyrazol-1-yl)pyridin-3-yl)(3-(5-(4-methyl-6-((5-methyl-1H-pyrazol-3-yl)-amino)pyrimidin-2-yl)pyridin-2-yl)-3,6-diazabicyclo[3.1.1]heptan-6-yl)methanone] | 83 | 64 | – | – |
| Cc1cc(Nc2cc(C)[nH]n2)nc(-c2ccc(N3CC4CC(C3)N4Cc3ccc(-n4nccc4OC4CCC4)nc3)nc2)n1 [Compound 27, 2-(6-(6-((6-(5-cyclobutoxy-1H-pyrazol-1-yl)pyridin-3-yl)methyl)-3,6-diazabicyclo[3.1.1]heptan-3-yl)pyridin-3-yl)-6-methyl-N-(5-methyl-1H-pyrazol-3-yl)pyrimidin-4-amine] | 87 | – | – | inhibition at 0.03 µM ([2]; 30 nM, read-out: Inhibition rate on VEGFR2): 23% |

Reference: patent publication US20220144847A1, “HETEROCYCLIC COMPOUND, PHARMACEUTICAL COMPOSITION COMPRISING SAME, PREPARATION METHOD THEREFOR, AND USE THEREOF” (Sichuan Kelun-Biotech Biopharmaceutical Co., Ltd., priority 2019, published 2022)
